“Also recorded” adds a separate entry of the source.
Experiments:
high fat-fed rats [1] = experiment: ICV glucose or lactate in high fat-fed rats: plasma triglycerides and VLDL secretion; type: in vivo, rat
Protocol: High fat feeding. Male Sprague-Dawley rats were fed a highly palatable high fat diet for three days. These rats developed hyperinsulinemia and hepatic insulin resistance (Morgan et al., 2004). […] In a separate set of studies, lipoprotein secretion studies were performed at the beginning of the ICV infusions.

conscious rats [2] = experiment: Intravenous lactate infusion with or without MBH oxamate: plasma TG and hepatic TG-VLDL production; type: in vivo, rat
Protocol: (§1) Infusion protocols. The in vivo infusion experiments lasted a total of 360 min, and the experiments were carried out in rats that had their food removed ˜5 h before the experiments. Thus, at the time of the experiment, the rats are in post-absorptive state since their stomach should be completely emptied by 5 h fasting. […] This ICV glucose protocol physiologically elevate hypothalamic glucose concentration by ˜70% as previously described (Lam et al., 2005b) and is similar to that induced by a doubling of the circulating glucose levels (Lam et al., 2005b). During the ICV infusions, we monitored the plasma metabolite levels under pre-infused (0 min), basal (180-240 min) and pancreatic clamp (300-360 min) conditions. […] A basal insulin-pancreatic clamp was performed in the final 2 h (240-360 min) of the study as previously described (Lam et al., 2005b). In brief, a continuous infusion of insulin (1 mU/kg.min) and somatostatin (3 μg/kg.min) was administered, and a variable infusion of a 25% glucose solution was started and periodically adjusted to clamp and maintain the plasma glucose concentration at ˜8 mM. […] To examine the time-dependent effects of ICY glucose on plasma triglycerides, ICY (5 μl/h) 2 mM D-glucose or mannitol was administrated for 210 min and plasma triglyceride levels were monitored at 0, 20, 60, 120, 180, 210 min. […] Plasma triglycerides were monitored under basal, pancreatic clamp and tyloxapol-treated conditions. At the end of the infusion experiments, rats were anesthetized and tissue samples were freeze-clamped in situ with aluminum tongs pre-cooled in liquid nitrogen. All tissue samples were stored at −80° C. for subsequent analysis.
VLDL are decreased in the hours following an acute bout of exercise. […] To investigate the mechanism by which lactate lowers plasma TG levels, the rate of production of hepatic TG-enriched VLDL was measured.

conscious rats [3] = experiment: ICV glucose or lactate infusion with pancreatic basal insulin clamp: plasma glucose and liver glucose production; type: in vivo, rat
Description: We hypothesize that the hypothalamic sensing of glucose-derived pyruvate is a novel regulator of endogenous glucose production (GP). […] We propose that an increase in neuronal pyruvate levels is a hypothalamic signal of nutrient availability.
Long chain fatty acids in the brain decrease glucose production (GP) by the liver via activation of hypothalamus ATP-sensitive (KATP) channels. Here we tested whether (A) direct administration of glucose in the third cerebral ventricle can alter glucose production by the liver, and (B) whether this effect requires its metabolism in the TCA cycle.

high fat-fed rats [4] = experiment: Central glucose or lactate in regular chow vs 3-day high fat diet-fed animals: glucose production; type: in vivo, rat; conditions: central administration
Description: The latter is an excellent model for diet-induced insulin resistance.

conscious rats [5] = experiment: Circulating lactate infusion with central LDH inhibitor or KATP blocker: glucose kinetics during pancreatic clamps; conditions: pancreatic clamps
rats = experiment: Food intake after central (ICV) glucose or lactate; type: in vivo, rat
hepatic VLDL secretion = experiment: Lipoprotein (VLDL) secretion studies with tyloxapol; NMR particle size; type: in vivo, rat; conditions: increased central metabolism of lactate to pyruvate, rats (Example 3)
Protocol: Lipoproteins secretion and particles concentration and size measurements. Tyloxapol (600 mg/kg; ˜1 min) was intravenously injected to inhibit endogenous lipoprotein lipase. This high dose of tyloxapol ensured complete inhibition of triglyceride clearance during VLDL secretion studies. Plasma samples were taken every 30 min for triglycerides analysis and for lipoprotein profiling. Plasma VLDL particles concentration and size were determined by nuclear magnetic resonance spectroscopy (lipoprofile-II test) at Liposcience as previously described (Otvos et al., 1991; 1992). This NMR lipoprofile-II test is based on the assumption that each plasma lipoprotein particle of a particular size gives its own characteristic lipid NMR signal. The intensity of the signal is also in proportion to the concentration of the particle. The diameter range for large, medium and small VLDL is >60 nm, 35-60 nm, and 27-35 nm, respectively.
Selective hepatic branch vagotomy. The surgeries were performed as described (Lam et al., 2005c).
Treatment with SCD1 ASO. Five and two days before the lipoprotein secretion studies, rats received a single intra-peritoneal injection of either SCD1 or scrambled (SCR) ASO (100 mg/kg of body weight). […] In a separate set of studies, rats received intra-portal injection of either SCD1 or SCR ASO (40 mg/kg of body weight) (Gutierrez-Juarez et al., 2006) three days before the lipoprotein secretion studies.
Portal oleate infusion. Chronic portal catheter was implanted and 7 days were allowed for rat recovery. Oleic acid (45 mM; dissolved in 45% HBP) was infused at a rate of 40 μl/h for 2.5 h (1 h before the 90 min lipoprotein secretion studies). This dose enabled the reconstitution of hepatic oleyl-CoA levels back to normal during portal SCD1 ASO (FIG. 11c) or ICV glucose studies (FIG. 11d).

male Sprague-Dawley rats = experiment: ICV infusion: plasma triglycerides and metabolites under basal and pancreatic clamp conditions; type: in vivo, rat
Description: Animal preparation. We studied 10-week-old male Sprague-Dawley rats. Rats underwent stereotaxic surgery to indwell single catheters in the third cerebral ventricle {intracerebroventricular (ICV)(Obici et al., 2001) or bilateral catheters into the mediobasal hypothalamus (Lam et al., 2005c). One week later, we placed indwelling catheters in the internal jugular vein and carotid artery for sampling and infusion during the in vivo experiments (Obici et al., 2001). Recovery from surgery was monitored by measuring daily food intake and weight gain for 4-5 days after surgery.
as §1
Biochemical analyses. Plasma glucose concentrations were measured by the glucose oxidase method (Glucose Analyzer II, Beckman Instruments, Inc., Fullerton, Calif.). […] FFA concentrations were determined by an enzyme assay in accordance with the manufacturer's specifications (Waco Pure Chemical Industries. Osaka. Japan). Plasma insulin concentrations (with rat and porcine insulin standards) were measured by radioimmunoassay (RIA). Plasma adiponectin concentrations were measured by RIA (Linco Inc., Austin, Tex., USA). Liver triglycerides were measured as described (Muse et al., 2004).
Calculations. Statistical analysis was done by unpaired Student's t test or analysis of variance as appropriate. Data are presented as means±SEM. All values were collapsed into a single value for each animal prior to the calculation of mean. The time period 180-240 min was averaged for the basal and the time period 300-360 min was averaged for the clamp conditions.

elevation of plasma lactate (conscious rats [5]; intravenous infusion of lactate): ~3 fold
Compound: C[C@H](O)C(=O)O [lactate, L-lactate]
rate of appearance of VLDL-triglycerides in plasma (high fat-fed rats [1]; HF rats, tyloxapol): decreased the rate of appearance of VLDL-triglycerides in plasma to levels similar to those of SC rats
circulating levels of triglycerides (high fat-fed rats [1]; high fat-fed rats): effectively lowered the circulating levels of triglycerides to levels similar to those of rats on a standard chow
plasma TG levels (conscious rats [2]; i.v. lactate 100 μmol•kg-1•min-1, i.v. saline 0.28±0.09): 0.11 ± 0.02 mM
rate of production of hepatic TG-enriched VLDL (conscious rats [2]; i.v. lactate infusion, i.v. saline 0.059±0.003): 0.041 ± 0.002 mM/min
decrease in VLDL production (conscious rats [2]; i.v. lactate vs i.v. saline): 31%
lowering of plasma TG levels (conscious rats [2]; i.v. lactate vs i.v. saline): > 50%
VLDL secretion (conscious rats [2]; physiological increase in plasma lactate): sufficient to inhibit VLDL secretion
plasma triglyceride (conscious rats [2]; ~two-fold increase in circulating lactate, basal and clamp conditions): significant decrease in plasma triglyceride in both conditions
circulating glucose levels (conscious rats [3]; central (ICV) administration): sufficient to markedly diminish circulating glucose levels; also recorded: lowered circulating glucose levels
gluconeogenesis and glycogenolysis (conscious rats [3]; central administration): inhibited gluconeogenesis and glycogenolysis
liver glucose production, G6Pase flux and mRNA (conscious rats [3]; central administration): reduced liver glucose production, G6Pase flux and mRNA
plasma glucose concentrations (conscious rats [3]; four hour ICV infusion 5 μl/h (glucose 2 mM, lactate 5 mM), control 150±4): 129 ± 3 mg/dL
exogenous glucose infusion rate required to maintain euglycemia (conscious rats [3]; pancreatic basal insulin clamps, central administration): increased exogenous glucose infusion rate
GP (glucose production) (conscious rats [3]; pancreatic clamps, plasma glucose and insulin at basal, ICV infusion, control 10.4±0.1 (glucose), 11.7±0.6 (lactate)): 6.5 ± 0.6 mg/kg/min
glucose production (high fat-fed rats [4]; 3-day high fat diet-fed animals): entirely preserved; also recorded: lowered glucose production
glucose production (high fat-fed rats [4]; regular chow animals): lowered glucose production
glucose infusion kinetics (conscious rats [5]; intravenous infusion of lactate alone): did not affect glucose infusion kinetics
food intake overnight (rats; central administration): inhibits food intake overnight
decrease in food intake (rats; the day following ICV injection): ~40%
suppression of hepatic TG-enriched VLDL production (hepatic VLDL secretion): ~40%
plasma free fatty acids levels (male Sprague-Dawley rats; ICV infusion): did not affect plasma free fatty acids levels
plasma triglyceride levels (male Sprague-Dawley rats; ICV infusion (glucose 2 mM, L-lactate 5 mM)): markedly decreased plasma triglycerides levels
suppression of plasma TG levels (male Sprague-Dawley rats; increased central metabolism of lactate to pyruvate, rats (Example 3)): ~50%

Reference: US20110207694A1, “MAMMALIAN HYPOTHALAMIC NUTRIENT MODULATION OF GLUCOSE METABOLISM” (priority 2005, published 2011)
